US11366102B2, “Spectographic metabolite-signature for identifying a subject's susceptibility to drugs” (Olaris, Inc., priority 2018, dated 2022)

Legend:
[1] = tested on: adenoid cystic carcinomas of the salivary gland; settings: despite increased expression of c-kit; cited from earlier work
CYP2A6 = target: T1, CYP2A6 (Homo sapiens, UniProt P11509); settings: off-target effect; cited from earlier work
T1 sequence (P11509 1-494): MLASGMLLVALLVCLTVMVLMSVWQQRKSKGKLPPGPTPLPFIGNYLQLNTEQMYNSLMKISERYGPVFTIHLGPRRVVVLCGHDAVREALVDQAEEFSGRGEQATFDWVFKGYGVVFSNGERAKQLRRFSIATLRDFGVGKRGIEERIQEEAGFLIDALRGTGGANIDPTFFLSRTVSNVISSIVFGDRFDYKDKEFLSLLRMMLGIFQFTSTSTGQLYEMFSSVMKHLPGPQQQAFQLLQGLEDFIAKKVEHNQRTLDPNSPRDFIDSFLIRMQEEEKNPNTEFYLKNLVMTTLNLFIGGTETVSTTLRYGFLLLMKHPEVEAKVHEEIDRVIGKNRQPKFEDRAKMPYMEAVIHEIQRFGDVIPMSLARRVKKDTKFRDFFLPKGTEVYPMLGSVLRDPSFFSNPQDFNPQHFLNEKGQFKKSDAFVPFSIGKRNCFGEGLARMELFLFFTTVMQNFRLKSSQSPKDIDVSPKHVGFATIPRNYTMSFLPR

CYP2C19 = CYP2C19 (Homo sapiens, UniProt P33261); settings: off-target effect; cited from earlier work
CYP2C19, sequence (P33261 whole entry): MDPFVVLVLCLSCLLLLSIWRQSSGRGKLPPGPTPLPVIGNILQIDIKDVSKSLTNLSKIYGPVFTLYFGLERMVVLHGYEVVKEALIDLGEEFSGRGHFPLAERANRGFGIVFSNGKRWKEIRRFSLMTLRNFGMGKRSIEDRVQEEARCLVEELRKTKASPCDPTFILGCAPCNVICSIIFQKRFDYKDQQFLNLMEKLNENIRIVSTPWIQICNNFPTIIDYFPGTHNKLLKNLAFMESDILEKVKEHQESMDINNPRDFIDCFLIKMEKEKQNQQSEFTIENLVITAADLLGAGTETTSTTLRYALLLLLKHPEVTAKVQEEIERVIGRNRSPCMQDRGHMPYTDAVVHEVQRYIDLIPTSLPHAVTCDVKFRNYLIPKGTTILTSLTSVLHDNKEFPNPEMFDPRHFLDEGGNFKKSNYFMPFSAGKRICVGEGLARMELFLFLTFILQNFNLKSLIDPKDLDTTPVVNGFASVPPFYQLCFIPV

ER+/HER2− metastatic BC = experiment: Retrospective study of metastatic BC patients treated with CDK4/6 inhibitors, classified R or NR by change in sum of diameters of target tumors after 6 months, with overall survival; assay type: in vivo, human; settings: for Patients within the NR group / Number of non-responders (NR): at least a 20% increase in the sum of diameters of target tumors after 6 months; for Patients within the NR group: 10 NR of 24 patients; for Number of non-responders (NR) / Number of responders (R): samples separated by inhibitor; for Number of responders (R): at least a 30% decrease in the sum of diameters of target tumors after 6 months of treatment
Source text: Here we describe a retrospective study analyzing plasma-based metabolites from a baseline (BL) sample and after 2-months (2M) of treatment of 24 women with ER+/HER2-− metastatic BC treated with CDK4/6 inhibitors, palbociclib or ribociclib.

| Compound | Effect on adenoid cystic carcinomas of the salivary gland [1] | Inhibition of CYP2A6 (CYP2A6) | Inhibition of CYP2C19 (CYP2C19) | Patients within the NR group (ER+/HER2− metastatic BC) [patients] | Number of non-responders (NR) (ER+/HER2− metastatic BC) | Number of responders (R) (ER+/HER2− metastatic BC) |
| --- | --- | --- | --- | --- | --- | --- |
| Cc1ccc(NC(=O)c2ccc(CN3CCN(C)CC3)cc2)cc1Nc1nccc(-c2cccnc2)n1 [imatinib] | no effect | – | – | – | – | – |
| N#Cc1ccc(C(c2ccc(C#N)cc2)n2cncn2)cc1 [letrozole] | – | inhibits | inhibits | – | – | – |
| CC(=O)c1c(C)c2cnc(Nc3ccc(N4CCNCC4)cn3)nc2n(C2CCCC2)c1=O [palbociclib] | – | – | – | 3 | 3 | 7 |
| CN(C)C(=O)c1cc2cnc(Nc3ccc(N4CCNCC4)cn3)nc2n1C1CCCC1 [ribociclib] | – | – | – | 7 | 6 | 8 |
